Assay results as given in patent US10647680B2, “Urea compound, preparation method therefor and medical use thereof” (Ancureall Pharmaceutical (Shanghai) Co., Ltd., priority 2016, dated 2020).

Key:
[1] = system: RS4; 11 (FLT3 wild type); assay: In vitro growth inhibition (GI50), RS4; 11; assay type: cell-based, human; conditions: Homo sapiens, RS4-11; Cell lines of leukemia; read-out: GI 50 RS4: 11 FLT3 (WT)
[2] = system: MOLM-13 (FLT3 ITD+/− mutant type); assay: In vitro growth inhibition (GI50), MOLM-13; assay type: cell-based, human; conditions: Homo sapiens, MOLM-13; Cell lines of leukemia; read-out: GI 50 MOLM-13 FLT3 (ITD+/−)
[3] = system: Kasumi-1 (c-Kit N822K mutant type); assay: In vitro growth inhibition (GI50), Kasumi-1; assay type: cell-based; conditions: Homo sapiens, Cell lines of leukemia, read-out: GI 50 Kasumi-1 Kit (N822K)
Procedure, shortened: (§1)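 Cells in RPMI1640 with 10% FBS, seeded at 5–10×10^4 cells/mL, exposed next day to compound at 5,000 nM down to 0.01 nM (2- or 10-fold dilutions, ≤1% solvent) for 3–5 days at 37 °C. CCK8 absorbance at 450 nm, growth rate relative to pre-treatment and solvent controls, GI50 from concentration–growth curve.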

[4] = system: OCI-AML3 (NPMc+ mutant type); assay: In vitro growth inhibition (GI50), OCI-AML3; assay type: cell-based; conditions: Homo sapiens, OCI-AML-3; Cell lines of leukemia; read-out: GI 50 OCI- AML3 NPMc+
[5] = system: RAMOS (positive expression of Brutons tyrosine protein kinase); assay: In vitro growth inhibition (GI50), RAMOS; assay type: cell-based; conditions: Homo sapiens, Cell lines of leukemia, read-out: GI 50 Ramos BTK
[6] = system: MV4-11 (FLT3 ITD+/+ mutant type); assay: In vitro growth inhibition (GI50), MV4-11; assay type: cell-based, human; conditions: Homo sapiens, MV4-11; Cell lines of leukemia; read-out: GI 50 MV4-11 FLT3 (ITD +/+)
[7] = system: HL-60 (FLT3 wild type); assay: In vitro growth inhibition (GI50), HL-60; assay type: cell-based; conditions: Homo sapiens, Cell lines of leukemia, read-out: GI 50 HL60 FLT3 (WT)
Procedure, shortened: as §1

[8] = system: K562 (FLT3 negative expression, positive expression of BCR-ABL fusion protein); assay: In vitro growth inhibition (GI50), K562; assay type: cell-based; conditions: Homo sapiens, Cell lines of leukemia, read-out: GI 50 K562 BCR-ABL
[9] = system: KG-1 (expressing FGFR1OP2-FGFR1 fusion protein); assay: In vitro growth inhibition (GI50), KG-1; assay type: cell-based; conditions: Homo sapiens; Cell lines of leukemia; read-out: GI 50 KG-1 FGFR1OP 2-FGFR1
[10] = system: U937 (FLT3 wild-type); assay: In vitro growth inhibition (GI50), U937; assay type: cell-based; conditions: Homo sapiens, U-937; Cell lines of leukemia; read-out: GI 50 U937 FLT 3(WT)

Q: Which GI50 [1] does the source give for `CC(C)(C)c1cc(NC(=O)Nc2ccc(-n3cnc4cc(C(F)(F)F)cnc43)cc2)no1` [Compound 52, 1-(5-tert-butyl-isoxazol-3-yl)-3-[4-(6-trifluoromethyl-imidazo[4,5-b]pyridin-3-yl)-phenyl]-urea] here?
A: > 1000 nM

Q: What about the GI50 [2] of the same molecule?
A: 1 to 10 nM

Q: And the GI50 [3]?
A: > 1000 nM

Q: And the GI50 [4]?
A: > 1000 nM

Q: What about the GI50 [5] of the same molecule?
A: > 1000 nM

Q: And the GI50 [6]?
A: 1 to 10 nM

Q: And the GI50 [7]?
A: > 1000 nM

Q: What about the GI50 [8] of the same molecule?
A: > 1000 nM

Q: What about the GI50 [9] of the same molecule?
A: > 1000 nM

Q: And the GI50 [10]?
A: > 1000 nM

Q: What does the source list for `CC(C)(C)c1cc(NC(=O)Nc2ccc(-n3cnc4cc(C(F)(F)F)ccc43)cc2)no1` [Compound 23, 1-(5-tert-butyl-isoxazol-3-yl)-3-[4-(5-trifluoromethyl-benzimidazol-1-yl)-phenyl]-urea]?
A: GI50 [1]: 100 to 1000 nM; GI50 [2]: 1 to 10 nM; GI50 [3]: > 1000 nM; GI50 [4]: > 1000 nM; GI50 [5]: > 1000 nM; GI50 [6]: 1 to 10 nM; GI50 [7]: > 1000 nM; GI50 [8]: 100 to 1000 nM; GI50 [9]: > 1000 nM; GI50 [10]: > 1000 nM

Q: How did the GI50 [1] turn out when `CC(C)(C)c1cc(NC(=O)Nc2ccc(-n3cnc4cc(F)ccc43)cc2)[nH]n1` [Compound 69, 1-(5-tert-butyl-2H-pyrazol-3-yl)-3-[4-(5-fluoro-benzimidazol-1-yl)-phenyl]-urea] was run?
A: 100 to 1000 nM

Q: And the GI50 [2]?
A: 0.1 to 1 nM

Q: And the GI50 [3]?
A: > 1000 nM

Q: And the GI50 [4]?
A: > 1000 nM

Q: What about the GI50 [5] of the same molecule?
A: > 1000 nM

Q: And the GI50 [6]?
A: 0.1 to 1 nM

Q: What about the GI50 [7] of the same molecule?
A: > 1000 nM

Q: What about the GI50 [8] of the same molecule?
A: 100 to 1000 nM

Q: What about the GI50 [9] of the same molecule?
A: > 1000 nM

Q: And the GI50 [10]?
A: > 1000 nM

Q: What does the source list for `Cc1cc(F)cc2ncn(-c3ccc(NC(=O)Nc4cc(C(C)(C)C)on4)cc3)c12` [Compound 33, 1-(5-tert-butyl-isoxazol-3-yl)-3-[4-(5-fluoro-7-methyl-benzimidazol-1-yl)-phenyl]-urea]?
A: GI50 [1]: > 1000 nM; GI50 [2]: 1 to 10 nM; GI50 [3]: > 1000 nM; GI50 [4]: > 1000 nM; GI50 [5]: > 1000 nM; GI50 [6]: 1 to 10 nM; GI50 [7]: 100 to 1000 nM; GI50 [8]: > 1000 nM; GI50 [9]: > 1000 nM; GI50 [10]: > 1000 nM

Q: What does the source list for `Cc1nc2ccccc2n1-c1ccc(NC(=O)Nc2cc(C(C)(C)C)on2)cc1` [Compound 35, 1-(5-tert-butyl-isoxazol-3-yl)-3-[4-(2-methyl-benzimidazol-1-yl)-phenyl]-urea]?
A: GI50 [1]: 100 to 1000 nM; GI50 [2]: 100 to 1000 nM; GI50 [3]: > 1000 nM; GI50 [4]: > 1000 nM; GI50 [5]: > 1000 nM; GI50 [6]: 100 to 1000 nM; GI50 [7]: > 1000 nM; GI50 [8]: 100 to 1000 nM; GI50 [9]: > 1000 nM; GI50 [10]: > 1000 nM

Q: How did the GI50 [1] turn out when `CC(C)(C)c1cc(NC(=O)Nc2ccc(-n3cnc4ccccc43)cc2)n(-c2ccc(F)cc2)n1` [Compound 108, 1-(4-benzimidazol-1-yl-phenyl)-3-[5-tert-butyl-2-(4-fluoro-phenyl)-2H-pyrazol-3-yl]-urea] was run?
A: 100 to 1000 nM

Q: What about the GI50 [2] of the same molecule?
A: 10 to 100 nM

Q: What about the GI50 [3] of the same molecule?
A: > 1000 nM

Q: And the GI50 [4]?
A: 100 to 1000 nM

Q: What about the GI50 [5] of the same molecule?
A: > 1000 nM

Q: And the GI50 [6]?
A: 10 to 100 nM

Q: And the GI50 [7]?
A: > 1000 nM

Q: And the GI50 [8]?
A: 100 to 1000 nM

Q: And the GI50 [9]?
A: > 1000 nM

Q: What about the GI50 [10] of the same molecule?
A: > 1000 nM

Q: How did the GI50 [1] turn out when `CC(C)(C)c1cc(NC(=O)Nc2ccc(-n3cnc4ccccc43)cc2)n(CCO)n1` [Compound 103, 1-(4-benzimidazol-1-yl-phenyl)-3-[5-tert-butyl-2-(2-hydroxy-ethyl)-2H-pyrazol-3-yl]-urea] was run?
A: > 1000 nM

Q: And the GI50 [2]?
A: 1 to 10 nM

Q: What about the GI50 [3] of the same molecule?
A: > 1000 nM

Q: What about the GI50 [4] of the same molecule?
A: > 1000 nM

Q: What about the GI50 [5] of the same molecule?
A: > 1000 nM

Q: And the GI50 [6]?
A: 1 to 10 nM

Q: And the GI50 [7]?
A: > 1000 nM

Q: What about the GI50 [8] of the same molecule?
A: > 1000 nM

Q: What about the GI50 [9] of the same molecule?
A: > 1000 nM

Q: What about the GI50 [10] of the same molecule?
A: > 1000 nM

Q: For `CN1CCN(c2ccc3ncn(-c4ccc(NC(=O)Nc5cc(C(C)(C)C)on5)cc4)c3c2)CC1` [Compound 29, 1-(5-tert-butyl-isoxazol-3-yl)-3-{4-[6-(4-methyl-piperazin-1-yl)-benzimidazol-1-yl]-phenyl}-urea], which GI50 [1] is on record?
A: > 1000 nM

Q: What about the GI50 [2] of the same molecule?
A: 10 to 100 nM

Q: And the GI50 [3]?
A: > 1000 nM

Q: What about the GI50 [4] of the same molecule?
A: > 1000 nM

Q: And the GI50 [5]?
A: > 1000 nM

Q: And the GI50 [6]?
A: 10 to 100 nM

Q: And the GI50 [7]?
A: > 1000 nM

Q: And the GI50 [8]?
A: > 1000 nM

Q: And the GI50 [9]?
A: > 1000 nM

Q: What about the GI50 [10] of the same molecule?
A: > 1000 nM
